# According to patent publication US9732075B2, “Benzimidazole-proline derivatives” (IDORSIA PHARMACEUTICALS LTD, priority 2012, dated 2017):
# Experiments:
# human orexin-2 receptor = human orexin-2 receptor (Homo sapiens (Human), UniProt O43614); test: In vitro assay: intracellular calcium measurements (FLIPR), antagonistic activity; assay type: cell-based; details: CHO cells expressing human orexin-2 receptor, orexin-A agonist, geometric mean, read-out: IC50 Ox2
# Method in brief: (§1)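 Orexin-A-evoked calcium rise (3 nM final, roughly EC70) was recorded with fluo-4 in recombinant CHO cells, human receptor subtype 1 or 2.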
# human orexin-1 receptor = human orexin-1 receptor (Homo sapiens (Human), UniProt O43613); test: as above; assay type: cell-based; details: CHO cells expressing human orexin-1 receptor, orexin-A agonist, geometric mean, read-out: IC50 Ox1
# Method in brief: as §1
# human orexin-2 receptor, sequence (O43614 whole entry): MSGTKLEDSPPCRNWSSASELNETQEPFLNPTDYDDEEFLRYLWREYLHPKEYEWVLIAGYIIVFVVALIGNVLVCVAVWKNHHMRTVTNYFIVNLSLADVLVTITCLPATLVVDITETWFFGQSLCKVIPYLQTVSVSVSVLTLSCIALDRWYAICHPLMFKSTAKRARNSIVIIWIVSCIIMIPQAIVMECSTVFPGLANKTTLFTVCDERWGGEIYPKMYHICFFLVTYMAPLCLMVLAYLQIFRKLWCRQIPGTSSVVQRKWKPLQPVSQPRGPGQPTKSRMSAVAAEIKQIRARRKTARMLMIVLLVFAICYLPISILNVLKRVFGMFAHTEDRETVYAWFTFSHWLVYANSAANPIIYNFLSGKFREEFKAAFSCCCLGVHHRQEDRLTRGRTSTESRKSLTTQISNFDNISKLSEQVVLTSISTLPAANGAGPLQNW
# human orexin-1 receptor, sequence (O43613 whole entry): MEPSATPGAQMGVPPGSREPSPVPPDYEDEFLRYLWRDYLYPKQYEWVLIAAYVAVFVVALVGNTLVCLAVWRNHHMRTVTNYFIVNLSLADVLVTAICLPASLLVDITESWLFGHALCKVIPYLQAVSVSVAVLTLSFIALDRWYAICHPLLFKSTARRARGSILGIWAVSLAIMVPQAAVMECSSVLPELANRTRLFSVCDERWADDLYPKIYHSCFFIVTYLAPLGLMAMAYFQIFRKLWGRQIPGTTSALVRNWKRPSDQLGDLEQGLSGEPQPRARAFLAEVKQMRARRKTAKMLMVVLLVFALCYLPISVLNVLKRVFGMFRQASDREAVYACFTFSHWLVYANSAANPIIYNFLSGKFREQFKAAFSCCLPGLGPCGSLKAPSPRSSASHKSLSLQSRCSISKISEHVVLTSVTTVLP
Molecule,IC50 (human orexin-2 receptor),IC50 (human orexin-1 receptor)
CCn1c([C@]2(C)CCCN2C(=O)c2nc(C)sc2-c2ccccc2)nc2c(C)c(Cl)ccc21 [Ex. 7.8],4 nM,2 nM
COc1cc2nc([C@]3(C)CCCN3C(=O)c3cc(C)ccc3-n3nccn3)n(C)c2cc1OC [Ex. 7.9],28 nM,28 nM
CCn1c([C@]2(C)CCCN2C(=O)c2cc(C)ccc2-n2nccn2)nc2cc(OC)c(OC)cc21 [Ex. 7.10],42 nM,33 nM
Cc1ccc(C(=O)N2CCC[C@@]2(C)c2nc3cc(C)c(C)cc3n2C)c(-n2nccn2)c1 [Ex. 7.11],720 nM,17 nM
CCn1c([C@]2(C)CCCN2C(=O)c2ccc(C)cc2-n2nccn2)nc2cc(C)c(C)cc21 [Ex. 7.12],52 nM,15 nM
COc1cc2nc([C@]3(C)CCCN3C(=O)c3cc(C)c(C)cc3-n3nccn3)n(C)c2cc1OC [Ex. 7.13],49 nM,21 nM
CCn1c([C@]2(C)CCCN2C(=O)c2cc(C)c(C)cc2-n2nccn2)nc2cc(OC)c(OC)cc21 [Ex. 7.14],50 nM,23 nM
Cc1ccc(-c2ccc(F)cc2)c(C(=O)N2CCC[C@@]2(C)c2nc3cc(C)c(C)cc3n2C)c1 [Ex. 7.15],65 nM,11 nM
CCn1c([C@]2(C)CCCN2C(=O)c2cc(C)ccc2-c2ccc(F)cc2)nc2cc(C)c(C)cc21 [Ex. 7.16],21 nM,8 nM
Cc1cc(C(=O)N2CCC[C@@]2(C)c2nc3cc(C)c(C)cc3n2C)c(-n2nccn2)cc1C [Ex. 7.17],19 nM,4 nM
Cc1ccc(-n2nccn2)c(C(=O)N2CCC[C@@]2(C)c2nc3c(C)c(Cl)ccc3n2C)n1 [Ex. 7.18],4 nM,1 nM
Cc1c(Cl)ccc2c1nc([C@]1(C)CCCN1C(=O)c1ccccc1-n1nccn1)n2C [Ex. 7.19],8 nM,5 nM
CCn1c([C@]2(C)CCCN2C(=O)c2cc(C)ccc2-n2nccn2)nc2c(C)c(Cl)ccc21 [Ex. 7.21],2 nM,1 nM
Cc1c(Cl)ccc2c1nc([C@]1(C)CCCN1C(=O)c1cc(Cl)ccc1-n1nccn1)n2C [Ex. 7.22],4 nM,1 nM
COc1ccc(-n2nccn2)c(C(=O)N2CCC[C@@]2(C)c2nc3c(C)c(Cl)ccc3n2C)c1 [Ex. 7.23],3 nM,1 nM
COc1cc2nc([C@]3(C)CCCN3C(=O)c3cc(Cl)ccc3-n3nccn3)n(C)c2cc1OC [Ex. 7.24],33 nM,33 nM
Cc1cccc(-c2ccc(C)cc2C(=O)N2CCC[C@@]2(C)c2nc3cc(C)c(C)cc3n2C)c1 [Ex. 7.25],18 nM,15 nM
Cc1cccc(-c2ccc(C)cc2C(=O)N2CCC[C@@]2(C)c2nc3cc(C)c(C)cc3n2CC2CC2)c1 [Ex. 7.26],54 nM,42 nM
CCn1c([C@]2(C)CCCN2C(=O)c2cc(C)ccc2-c2cccc(C)c2)nc2cc(C)c(C)cc21 [Ex. 7.27],17 nM,23 nM
Cc1cccc(-c2ccc(C)cc2C(=O)N2CCC[C@@]2(C)c2nc3cc(C)c(C)cc3n2CCF)c1 [Ex. 7.28],19 nM,14 nM
COCCn1c([C@]2(C)CCCN2C(=O)c2cc(C)ccc2-c2cccc(C)c2)nc2cc(C)c(C)cc21 [Ex. 7.29],70 nM,23 nM
Cc1ccc(-c2cccc(F)c2)c(C(=O)N2CCC[C@@]2(C)c2nc3cc(C)c(C)cc3n2C)c1 [Ex. 7.30],12 nM,9 nM
CCn1c([C@]2(C)CCCN2C(=O)c2cc(C)ccc2-c2cccc(F)c2)nc2cc(C)c(C)cc21 [Ex. 7.31],19 nM,8 nM
Cc1ccc(-n2nccn2)c(C(=O)N2CCC[C@@]2(C)c2nc3cc(F)c(Br)cc3n2C)c1 [Ex. 7.32],124 nM,7 nM
Cc1nc(C(=O)N2CCC[C@@]2(C)c2nc3c(C)c(Cl)ccc3n2C)c(-c2cccc(Cl)c2)s1 [Ex. 7.33],3 nM,1 nM
Cc1ccc(-c2cccc(F)c2)c(C(=O)N2CCC[C@@]2(C)c2nc3cc(C)c(C)cc3n2CC2CC2)c1 [Ex. 7.34],84 nM,16 nM
Cc1ccc(-c2cccc(F)c2)c(C(=O)N2CCC[C@@]2(C)c2nc3cc(C)c(C)cc3n2CCF)c1 [Ex. 7.35],20 nM,6 nM

Molecule,IC50 (human orexin-2 receptor),IC50 (human orexin-1 receptor)
COCCn1c([C@]2(C)CCCN2C(=O)c2cc(C)ccc2-c2cccc(F)c2)nc2cc(C)c(C)cc21 [Ex. 7.36],115 nM,16 nM
Cc1ccc(-c2ccc(C)cc2C(=O)N2CCC[C@@]2(C)c2nc3cc(C)c(C)cc3n2C)cc1 [Ex. 7.37],20 nM,11 nM
CCn1c([C@]2(C)CCCN2C(=O)c2cc(C)ccc2-c2ccc(C)cc2)nc2cc(C)c(C)cc21 [Ex. 7.38],30 nM,8 nM
Cc1ccc(-c2ccc(C)cc2C(=O)N2CCC[C@@]2(C)c2nc3cc(C)c(C)cc3n2CC2CC2)cc1 [Ex. 7.39],61 nM,43 nM
Cc1ccc(-c2ccc(C)cc2C(=O)N2CCC[C@@]2(C)c2nc3cc(C)c(C)cc3n2CCF)cc1 [Ex. 7.40],39 nM,23 nM
COCCn1c([C@]2(C)CCCN2C(=O)c2cc(C)ccc2-c2ccc(C)cc2)nc2cc(C)c(C)cc21 [Ex. 7.41],106 nM,44 nM
COc1cccc(-c2ccc(C)cc2C(=O)N2CCC[C@@]2(C)c2nc3cc(C)c(C)cc3n2C)c1 [Ex. 7.42],28 nM,38 nM
Cc1ccc(-c2ccccc2F)c(C(=O)N2CCC[C@@]2(C)c2nc3cc(C)c(C)cc3n2C)c1 [Ex. 7.43],42 nM,24 nM
CCn1c([C@]2(C)CCCN2C(=O)c2cc(C)ccc2-c2cccc(OC)c2)nc2cc(C)c(C)cc21 [Ex. 7.44],35 nM,21 nM
CCn1c([C@]2(C)CCCN2C(=O)c2cc(C)ccc2-c2ccccc2F)nc2cc(C)c(C)cc21 [Ex. 7.45],60 nM,31 nM
COCCn1c([C@]2(C)CCCN2C(=O)c2cc(C)ccc2-n2nccn2)nc2cc(OC)c(OC)cc21 [Ex. 7.46],77 nM,78 nM
COc1cc2nc([C@]3(C)CCCN3C(=O)c3cc(C)ccc3-n3nccn3)n(CC3CC3)c2cc1OC [Ex. 7.47],60 nM,39 nM
COc1cc2nc([C@]3(C)CCCN3C(=O)c3cc(C)ccc3-n3nccn3)n(CCF)c2cc1OC [Ex. 7.48],40 nM,33 nM
COc1cccc(-c2ccc(C)cc2C(=O)N2CCC[C@@]2(C)c2nc3cc(C)c(C)cc3n2CC2CC2)c1 [Ex. 7.49],173 nM,96 nM
Cc1ccc(-c2ccccc2F)c(C(=O)N2CCC[C@@]2(C)c2nc3cc(C)c(C)cc3n2CC2CC2)c1 [Ex. 7.50],171 nM,66 nM
COc1cccc(-c2ccc(C)cc2C(=O)N2CCC[C@@]2(C)c2nc3cc(C)c(C)cc3n2CCF)c1 [Ex. 7.51],27 nM,19 nM
Cc1ccc(-c2ccccc2F)c(C(=O)N2CCC[C@@]2(C)c2nc3cc(C)c(C)cc3n2CCF)c1 [Ex. 7.52],60 nM,27 nM
COCCn1c([C@]2(C)CCCN2C(=O)c2cc(C)ccc2-c2cccc(OC)c2)nc2cc(C)c(C)cc21 [Ex. 7.53],190 nM,46 nM
COCCn1c([C@]2(C)CCCN2C(=O)c2cc(C)ccc2-c2ccccc2F)nc2cc(C)c(C)cc21 [Ex. 7.54],270 nM,87 nM
"Cc1ccc(-n2nccn2)c(C(=O)N2C[C@@H](F)C[C@H]2c2nc3ccc(Cl)c(C)c3[nH]2)c1 [Example 2.1, ((2S,4S)-2-(6-chloro-7-methyl-1H-benzo[d]imidazol-2-yl)-4-fluoropyrrolidin-1-yl)(5-methyl-2-(2H-1,2,3-triazol-2-yl)phenyl)methanone]",53 nM,56 nM
"CO[C@H]1C[C@@H](c2nc3ccc(Cl)c(C)c3[nH]2)N(C(=O)c2cc(C)ccc2-n2nccn2)C1 [Example 3.1, ((2S,4S)-2-(6-chloro-7-methyl-1H-benzo[d]imidazol-2-yl)-4-methoxypyrrolidin-1-yl)(5-methyl-2-(2H-1,2,3-triazol-2-yl)phenyl)methanone]",69 nM,102 nM
"Cc1ccc(-n2nccn2)c(C(=O)N2CC[C@H](C)[C@H]2c2nc3cccc(C)c3[nH]2)c1 [Example 4.1, (5-methyl-2-(2H-1,2,3-triazol-2-yl)phenyl)((2S,3S)-3-methyl-2-(7-methyl-1H-benzo[d]imidazol-2-yl)pyrrolidin-1-yl)methanone]",778 nM,29 nM
"Cc1nc(C(=O)N2CCC[C@@]2(C)c2nc3cccc(C)c3[nH]2)c(-c2ccccc2)s1 [Example 5.1, (S)-(2-methyl-2-(7-methyl-1H-benzo[d]imidazol-2-yl)pyrrolidin-1-yl)(2-methyl-5-phenylthiazol-4-yl)methanone]",13 nM,26 nM
"C=C1C[C@@H](c2nc3ccc(OC)cc3[nH]2)N(C(=O)c2nc(C)sc2-c2ccc(F)cc2)C1 [Example 6.1, (S)-(5-(4-fluorophenyl)-2-methylthiazol-4-yl)(2-(6-methoxy-1H-benzo[d]imidazol-2-yl)-4-methylenepyrrolidin-1-yl)methanone]",33 nM,367 nM
"Cc1ccc(-n2nccn2)c(C(=O)N2CCC[C@@]2(C)c2nc3cc(Br)cc(C)c3n2C)c1 [Example 7.4, (S)-(2-(5-bromo-1,7-dimethyl-1H-benzo[d]imidazol-2-yl)-2-methylpyrrolidin-1-yl)(5-methyl-2-(2H-1,2,3-triazol-2-yl)phenyl)methanone]",6 nM,7 nM
"(S)-(2-(6-methoxy-1H-benzo[d]imidazol-2-yl)pyrrolidin-1-yl)(5-methyl-2-(2H-1,2,3-triazol-2-yl)phenyl)methanone [Example 1.1]",108 nM,1500 nM
